Results as given in PubChem BioAssay AID1495 (Sanford-Burnham Center for Chemical Genomics, 2009).

Biological target: Chaperone protein DnaK (Escherichia coli) (UniProt C3TRK2)
Experiment: DnaK beta-domain binding affinity, SAR follow-up, orthogonal assay for DnaK modulator project, biophysical, isothermal titration calorimetry, full-length DnaK (AID 1495)
Details: purified DnaK
[1] = measured here: substrate peptide Kd, compound-saturated DnaK
[2] = measured here: Kd to DnaK substrate-binding domain

| Structure (SMILES) | Kd [1] | Kd [2] | Kd (measured here: ATP Kd, compound-saturated DnaK) |
| --- | --- | --- | --- |
| O=C(NCc1ccccc1O)c1cccs1 | 1.2 µM |  |  |
| Cc1ccc(C(=O)NCc2ccc(Cl)cc2)o1 |  | 19.3 µM |  |
| O=C(c1cccs1)N1CCN(CCO)CC1 | 7.9 µM |  |  |
| CC(Cc1ccc(F)cc1)NC(=O)c1cccs1 (stereo not given) | 0.2 µM | 13.7 µM |  |
| O=C(Nc1ccc2[nH]ccc2c1)c1cccs1 | 2.2 µM | 4.9 µM |  |
| O=C(NCc1ccccc1Br)c1cccs1 |  | 14.3 µM |  |

More lines, now with the values ahead:

| Kd [1] | Kd [2] | Kd (measured here: ATP Kd, compound-saturated DnaK) | Structure (SMILES) |
| --- | --- | --- | --- |
| 0.6 µM |  |  | O=C(NCc1ccc(Cl)c(Cl)c1)c1cccs1 |
|  | 47.6 µM |  | Cc1ccc(C(=O)NCc2ccc(F)cc2)o1 |
|  |  | 2.5 µM | O=C(NCc1cccc2ccsc12)c1cccs1 |
|  | 64.1 µM |  | O=C(NCc1ccccc1F)c1cccs1 |
|  | 25 µM |  | Cc1ccc(CNC(=O)c2ccc([N+](=O)[O-])o2)cc1 |
|  | 1.5 µM |  | O=C(Nc1ncc2ccccc2n1)c1cccs1 |
|  | 1 µM |  | O=C(NCc1cccc2ccccc12)c1cccs1 |
